# Test results reported in patent publication US20130296311A1, “INHIBITORS OF HCV NS5A” (PRESIDIO PHARMACEUTICALS, INC., priority 2010, published 2013).
# Like-named read-outs stand apart in the source and are kept apart here.
# Test system: HCV 1b_Huh-Luc/Neo-ET cell line persistently expressing a bicistronic genotype 1b replicon in Huh 7 cells
# Test: HCV replicon assay (luciferase readout, 72 h)
# Assay type: cell-based, HCV genotype 1b
# Details: Hepatitis C virus, Huh-7, 72 h
# In short: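 EC50 values come from a four-parameter fit of luciferase signal as % of untreated control, repeated across several determinations. The signal is from the HCV 1b_Huh-Luc/Neo-ET replicon line, dosed in triplicate one day post-plating and incubated 72 h before Bright-Glo readout.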
# [1] = read-out: Inhibition of HCV genotype 1b
Structure (SMILES),EC50 [1] [nM],EC50 (read-out: Inhibition of HCV) [nM]
COC(=O)N[C@@H](C(=O)N1CCC[C@H]1c1ncc(C#Cc2ccc(-c3ccc(-c4cnc([C@@H]5CCCN5C(=O)[C@@H](c5ccccc5)N5CCCC5)[nH]4)cc3)cc2)[nH]1)c1ccccc1 [Compound 759],< 1,–
O=C(N[C@@H](C(=O)N1CCC[C@H]1c1ncc(C#Cc2ccc(-c3ccc(-c4cnc([C@@H]5CCCN5C(=O)[C@H](NC(=O)C5CC5)c5ccccc5)[nH]4)cc3)cc2)[nH]1)c1ccccc1)C1CC1 [Compound 760],< 1,–
O=C(N[C@@H](C(=O)N1CCC[C@H]1c1ncc(C#Cc2ccc(-c3ccc(-c4cnc([C@@H]5CCCN5C(=O)[C@H](NC(=O)N5CCOCC5)c5ccccc5)[nH]4)cc3)cc2)[nH]1)c1ccccc1)N1CCOCC1 [Compound 761],< 1,–
O=C(N[C@@H](C(=O)N1CCC[C@H]1c1ncc(C#Cc2ccc(-c3ccc(-c4cnc([C@@H]5CCCN5C(=O)[C@H](NC(=O)N5CC[C@H](O)C5)c5ccccc5)[nH]4)cc3)cc2)[nH]1)c1ccccc1)N1CC[C@H](O)C1 [Compound 762],< 1,–
O=C(N[C@@H](C(=O)N1CCC[C@H]1c1ncc(C#Cc2ccc(-c3ccc(-c4cnc([C@@H]5CCCN5C(=O)[C@H](NC(=O)N5CC[C@@H](O)C5)c5ccccc5)[nH]4)cc3)cc2)[nH]1)c1ccccc1)N1CC[C@@H](O)C1 [Compound 763],< 1,–
COC(=O)N[C@@H](C(=O)N1CCC[C@H]1c1ncc(-c2ccc(C#Cc3ccc4nc([C@@H]5CCCN5C(=O)[C@H](NC(=O)OC)c5ccccc5)[nH]c4c3)cc2)[nH]1)c1ccccc1 [Compound 800],< 1,–
CC(C)(C)OC(=O)N[C@@H](C(=O)N1CCC[C@H]1c1ncc(-c2ccc(C#Cc3ccc4nc([C@@H]5CCCN5C(=O)[C@H](NC(=O)OC(C)(C)C)c5ccccc5)[nH]c4c3)cc2)[nH]1)c1ccccc1 [Compound 801],< 1,–
COC(=O)N[C@H](C(=O)N1CCC[C@H]1c1ncc(-c2ccc(C#Cc3ccc4nc([C@@H]5CCCN5C(=O)[C@@H](NC(=O)OC)C(C)C)[nH]c4c3)cc2)[nH]1)C(C)C [Compound 802],< 1,–
O=C(N[C@@H](C(=O)N1CCC[C@H]1c1nc(-c2ccc3cc(C#Cc4cnc([C@@H]5CCCN5C(=O)[C@H](NC(=O)C5CC5)c5ccccc5)[nH]4)ccc3c2)c[nH]1)c1ccccc1)C1CC1 [Compound 804],< 1,–
CC1(O)CCN(C(=O)N[C@@H](C(=O)N2CCC[C@H]2c2nc(-c3ccc4cc(C#Cc5cnc([C@@H]6CCCN6C(=O)[C@H](NC(=O)N6CCC(C)(O)CC6)c6ccccc6)[nH]5)ccc4c3)c[nH]2)c2ccccc2)CC1 [Compound 805],< 1,–
O=C(N[C@@H](C(=O)N1CCC[C@H]1c1nc(-c2ccc3cc(C#Cc4cnc([C@@H]5CCCN5C(=O)[C@H](NC(=O)N5CC[C@H](O)C5)c5ccccc5)[nH]4)ccc3c2)c[nH]1)c1ccccc1)N1CC[C@H](O)C1 [Compound 806],1 to 9.9,–
O=C(N[C@@H](C(=O)N1CCC[C@H]1c1nc(-c2ccc3cc(C#Cc4cnc([C@@H]5CCCN5C(=O)[C@H](NC(=O)N5CC[C@@H](O)C5)c5ccccc5)[nH]4)ccc3c2)c[nH]1)c1ccccc1)N1CC[C@@H](O)C1 [Compound 807],1 to 9.9,–
O=C(N[C@@H](C(=O)N1CCC[C@H]1c1nc(-c2ccc3cc(C#Cc4cnc([C@@H]5CCCN5C(=O)[C@H](NC(=O)N5CCOCC5)c5ccccc5)[nH]4)ccc3c2)c[nH]1)c1ccccc1)N1CCOCC1 [Compound 808],< 1,–
COC(=O)N[C@@H](C(=O)N1CCC[C@H]1c1nc2ccc(C#Cc3ccc4nc([C@@H]5CCCN5C(=O)[C@H](NC(=O)OC)c5ccccc5)[nH]c4c3)cc2[nH]1)c1ccccc1 [Compound 851],–,< 1
COC(=O)N[C@H](C(=O)N1CCC[C@H]1c1nc2ccc(C#Cc3ccc4nc([C@@H]5CCCN5C(=O)[C@@H](NC(=O)OC)C(C)C)[nH]c4c3)cc2[nH]1)C(C)C [Compound 852],–,< 1
COC(=O)N[C@@H](C(=O)N1CCC[C@H]1c1nc2ccc(C#Cc3ccc4nc([C@@H]5CCCN5C(=O)[C@H](NC(=O)OC)C(C)C)[nH]c4c3)cc2[nH]1)C(C)C [Compound 853],–,< 1
COC(=O)N[C@H](C(=O)N1CCC[C@H]1c1ncc(-c2ccc(C#Cc3ccc4nc([C@@H]5CCCN5C(=O)[C@@H](c5ccccc5)N(C)C)[nH]c4c3)cc2)[nH]1)C(C)C [Compound 860],< 1,–
COC(=O)N[C@@H](C(=O)N1CCC[C@H]1c1ncc(-c2ccc(C#Cc3ccc4nc([C@@H]5CCCN5C(=O)[C@H](NC(=O)OC)C(C)C)[nH]c4c3)cc2)[nH]1)C(C)C [Compound 861],10 to 999,–
COC(=O)N[C@H](C(=O)N1CCC[C@H]1c1ncc(-c2ccc(C#Cc3ccc4nc([C@@H]5CCCN5C(=O)[C@@H](NC(=O)OC)[C@@H](C)OC)[nH]c4c3)cc2)[nH]1)[C@@H](C)OC [Compound 862],< 1,–
COC(=O)N[C@H](C(=O)N1CCC[C@H]1c1ncc(-c2ccc(C#Cc3ccc4nc([C@@H]5CCCN5C(=O)[C@@H](NC(=O)OC)[C@@H](C)O)[nH]c4c3)cc2)[nH]1)[C@@H](C)O [Compound 863],< 1,–
COC(=O)N[C@H](C(=O)N1CCC[C@H]1c1nc2ccc(C#Cc3ccc(-c4cnc([C@@H]5CCCN5C(=O)[C@H](c5ccccc5)N(C)C)[nH]4)cc3)cc2[nH]1)C(C)C [Compound 864],< 1,–

Structure (SMILES),EC50 [1] [nM],EC50 (read-out: Inhibition of HCV) [nM]
COC(=O)N[C@H](C(=O)N1CCC[C@H]1c1nc2ccc(C#Cc3ccc(-c4cnc([C@@H]5CCCN5C(=O)[C@@H](C(C)C)N(C)C)[nH]4)cc3)cc2[nH]1)C(C)C [Compound 865],< 1,–
COC(=O)N[C@H](C(=O)N1CCC[C@H]1c1nc2ccc(C#Cc3ccc(-c4cnc([C@@H]5CCCN5C(=O)[C@H](C(C)C)N(C)C)[nH]4)cc3)cc2[nH]1)C(C)C [Compound 866],< 1,–
COC(=O)N[C@H](C(=O)N[C@@H](C)c1nc2ccc(C#Cc3ccc(-c4cnc([C@@H]5CCCN5C(=O)[C@@H](NC(=O)OC)C(C)C)[nH]4)cc3)cc2[nH]1)C(C)C [Compound 867],< 1,–
COC(=O)N[C@H](C(=O)N[C@@H](C)c1ncc(-c2ccc(C#Cc3ccc4nc([C@H](C)NC(=O)[C@@H](NC(=O)OC)C(C)C)[nH]c4c3)cc2)[nH]1)C(C)C [Compound 868],< 1,–
COC(=O)N[C@H](C(=O)N[C@@H](C)c1ncc(-c2ccc(C#Cc3ccc4nc([C@@H]5CCCN5C(=O)[C@@H](NC(=O)OC)C(C)C)[nH]c4c3)cc2)[nH]1)C(C)C [Compound 869],< 1,–
CC1(O)CCN(C(=O)N[C@@H](C(=O)N2CCC[C@H]2c2ncc(C#Cc3ccc(-c4ccc(-c5cnc([C@@H]6CCCN6C(=O)[C@H](NC(=O)N6CCC(C)(O)CC6)c6ccccc6)[nH]5)cc4)cc3)[nH]2)c2ccccc2)CC1 [Compound 870],< 1,–
COC(=O)N[C@@H](C(=O)N[C@@H](C)c1ncc(-c2ccc(C#Cc3ccc(-c4cnc([C@H](C)NC(=O)[C@H](NC(=O)OC)C(C)C)[nH]4)cc3)cc2)[nH]1)C(C)C [Compound 950],< 1,–
COC(=O)N[C@H](C(=O)N[C@@H](C)c1ncc(-c2ccc(C#Cc3ccc(-c4cnc([C@H](C)NC(=O)[C@@H](NC(=O)OC)C(C)C)[nH]4)cc3)cc2)[nH]1)C(C)C [Compound 951],< 1,–
COC(=O)N[C@H](C(=O)N[C@@H](C)c1ncc(-c2ccc(C#Cc3ccc(-c4cnc([C@H](C)NC(=O)[C@@H](NC(=O)OC)[C@@H](C)OC)[nH]4)cc3)cc2)[nH]1)[C@@H](C)OC [Compound 952],1 to 9.9,–
COC(=O)N[C@H](C(=O)N1CCC[C@H]1c1ncc(-c2ccc(C#Cc3ccc(-c4cnc([C@@H]5CCCN5C(=O)[C@H](C(C)C)N(C)C)[nH]4)cc3)cc2)[nH]1)C(C)C [Compound 953],1 to 9.9,–
COC(=O)N[C@H](C(=O)N1CCC[C@H]1c1ncc(-c2ccc(C#Cc3ccc(-c4cnc([C@@H]5CCCN5C(=O)[C@@H](C(C)C)N(C)C)[nH]4)cc3)cc2)[nH]1)C(C)C [Compound 954],1 to 9.9,–
COC(=O)N[C@H](C(=O)N1CCC[C@H]1c1ncc(-c2ccc(C#Cc3ccc(-c4cnc([C@@H]5CCCN5C(=O)[C@@H](c5ccccc5)N(C)C)[nH]4)cc3)cc2)[nH]1)C(C)C [Compound 955],< 1,–
COC(=O)N[C@H](C(=O)N1CCC[C@H]1c1ncc(-c2ccc(C#Cc3ccc(-c4cnc([C@@H]5CCCN5C(=O)[C@@H](c5ccccc5)N5CCC(O)CC5)[nH]4)cc3)cc2)[nH]1)C(C)C [Compound 956],< 1,–
COC(=O)N[C@H](C(=O)N1CCC[C@H]1c1ncc(-c2ccc(C#Cc3ccc(-c4cnc([C@@H]5CCCN5C(=O)[C@@H](c5ccccc5)N5CCN(C)CC5)[nH]4)cc3)cc2)[nH]1)C(C)C [Compound 957],< 1,–
COC(=O)N[C@H](C(=O)N1CCC[C@H]1c1ncc(-c2ccc(C#Cc3ccc(-c4cnc([C@@H]5CCCN5C(=O)[C@@H](c5ccccc5)N5CCN(CCO)CC5)[nH]4)cc3)cc2)[nH]1)C(C)C [Compound 958],< 1,–
CC(C)[C@@H](NC(=O)N1CCC(O)CC1)C(=O)N1CCC[C@H]1c1ncc(-c2ccc(C#Cc3ccc(-c4cnc([C@@H]5CCCN5C(=O)[C@H](NC(=O)N5CCC(O)CC5)C(C)C)[nH]4)cc3)cc2)[nH]1 [Compound 959],< 1,–
CC[C@H](NC(=O)OC)C(=O)N1CCC[C@H]1c1ncc(-c2ccc(C#Cc3ccc(-c4cnc([C@@H]5CCCN5C(=O)[C@H](CC)NC(=O)OC)[nH]4)cc3)cc2)[nH]1 [Compound 960],< 1,–
COC(=O)N[C@@H](CC(C)C)C(=O)N1CCC[C@H]1c1ncc(-c2ccc(C#Cc3ccc(-c4cnc([C@@H]5CCCN5C(=O)[C@H](CC(C)C)NC(=O)OC)[nH]4)cc3)cc2)[nH]1 [Compound 961],< 1,–
COC(=O)N[C@@H](C)C(=O)N1CCC[C@H]1c1ncc(-c2ccc(C#Cc3ccc(-c4cnc([C@@H]5CCCN5C(=O)[C@H](C)NC(=O)OC)[nH]4)cc3)cc2)[nH]1 [Compound 962],< 1,–
COC(=O)N[C@H](C(=O)N[C@@H](C)c1ncc(-c2ccc(C#Cc3ccc(-c4cnc([C@@H]5CCCN5C(=O)[C@H](C(C)C)N(C)C)[nH]4)cc3)cc2)[nH]1)C(C)C [Compound 963],1 to 9.9,–
